The test system of this test is 362531-283-R-J2-PDC complex spheroid viability. Briefly: Anticancer human tumor 362531-283-R-J2-PDC patient-derived colon adenocarcinoma cell line growth inhibition [RAS]. To be noted: for viability, T/C: stronger effect = lower value. The gist of the method: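 Multi-cell-type spheroids: tumor cells plus HUVEC endothelial cells and mesenchymal stem cells. RAS-pathway inhibitors were combined with targeted agents, each dosed in half-log steps down from clinical Cmax, or from 10 microM when Cmax was unknown.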

Where [1] appears, read: curve of first compound, second compound 0.000949 µM.
The mark [2] stands for this setting: curve of first compound, second compound 0.003 µM.
The mark [3] stands for this setting: curve of first compound, second compound 0.00949 µM.
Setting [4] is: curve of first compound, second compound 0.03 µM.
The mark [5] stands for this setting: curve of first compound, second compound 0.0949 µM.
Where [6] appears, read: curve of first compound, second compound 0.3 µM.
[7] abbreviates: second compound 0.000949 µM, first compound 0.0316 µM.
Where [8] appears, read: second compound 0.000949 µM, first compound 0.1 µM.
[9] abbreviates: second compound 0.000949 µM, first compound 0.316 µM.
Where [10] appears, read: second compound 0.000949 µM, first compound 1 µM.
Setting [11] is: second compound 0.000949 µM, first compound 3.16 µM.
Setting [12] is: second compound 0.000949 µM, first compound 10 µM.
[13] abbreviates: second compound 0.003 µM, first compound 0.0316 µM.
[14] abbreviates: second compound 0.003 µM, first compound 0.1 µM.
The mark [15] stands for this setting: second compound 0.003 µM, first compound 0.316 µM.
Setting [16] is: second compound 0.003 µM, first compound 1 µM.
Setting [17] is: second compound 0.003 µM, first compound 3.16 µM.
The mark [18] stands for this setting: second compound 0.003 µM, first compound 10 µM.
[19] abbreviates: second compound 0.00949 µM, first compound 0.0316 µM.
The mark [20] stands for this setting: second compound 0.00949 µM, first compound 0.1 µM.
[21] abbreviates: second compound 0.00949 µM, first compound 0.316 µM.
[22] abbreviates: second compound 0.00949 µM, first compound 1 µM.
The mark [23] stands for this setting: second compound 0.00949 µM, first compound 3.16 µM.
Where [24] appears, read: second compound 0.00949 µM, first compound 10 µM.
Where [25] appears, read: second compound 0.03 µM, first compound 0.0316 µM.
Setting [26] is: second compound 0.03 µM, first compound 0.1 µM.
Setting [27] is: second compound 0.03 µM, first compound 0.316 µM.
The mark [28] stands for this setting: second compound 0.03 µM, first compound 1 µM.
Setting [29] is: second compound 0.03 µM, first compound 3.16 µM.
Setting [30] is: second compound 0.03 µM, first compound 10 µM.
[31] abbreviates: second compound 0.0949 µM, first compound 0.0316 µM.
The mark [32] stands for this setting: second compound 0.0949 µM, first compound 0.1 µM.
[33] abbreviates: second compound 0.0949 µM, first compound 0.316 µM.
[34] abbreviates: second compound 0.0949 µM, first compound 1 µM.
Where [35] appears, read: second compound 0.0949 µM, first compound 3.16 µM.
[36] abbreviates: second compound 0.0949 µM, first compound 10 µM.
Setting [37] is: second compound 0.3 µM, first compound 0.0316 µM.
The mark [38] stands for this setting: second compound 0.3 µM, first compound 0.1 µM.
[39] abbreviates: second compound 0.3 µM, first compound 0.316 µM.
Setting [40] is: second compound 0.3 µM, first compound 1 µM.
Where [41] appears, read: second compound 0.3 µM, first compound 3.16 µM.
The mark [42] stands for this setting: second compound 0.3 µM, first compound 10 µM.

“And” between values parts separate entries of the source, which are not always exact repeats. Equal entries are not always repeated.
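Note: spheroids exposed to the agents for 7 days before readout.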
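Throughout, for viability, T/C: luminescence viability as percent of DMSO vehicle control wells.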

As to `NC1c2ccccc2OC12CCN(c1cnc3c(N4CCCc5ncccc54)n[nH]c3n1)CC2` (stereo not given) + CCn1c(-c2cccnc2C(C)OC)c2c3cc(ccc31)N1CCOC(CC(NC(=O)C(C(C)C)N(C)C(=O)C3(F)CCN(C(=O)C#CC(C)(C)N(C)C)CC3)C(=O)N3CCCC(N3)C(=O)OCC(C)(C)C2)C1, the IC50 is 5.44 µM under setting [1]; above 10 µM under setting [2]; 7.5 µM under setting [3]; 6.81 µM under setting [4]; 5.87 µM under setting [5]; above 10 µM under setting [6]. The viability, T/C is, setting by setting: under setting [7], 91.7%; under setting [8], 86.7%; under setting [9], 76.7%; under setting [10], 72.8%; under setting [11], 54.8%; under setting [12], 43%. Moreover, the viability, T/C was 94.8% under setting [13]; 87.5% under setting [14]; 75% under setting [15]; 66.8% under setting [16]; 63.3% under setting [17]; 52% under setting [18]. Moreover, the viability, T/C by setting is: under setting [19], 86.6%; under setting [20], 88.5%; under setting [21], 71.3%; under setting [22], 80.3%; under setting [23], 69.9%; under setting [24], 43.2%. The viability, T/C under setting [25] is 95.8%; the viability, T/C under setting [26] was 74.2%; the viability, T/C under setting [27] is 77.4%; the viability, T/C under setting [28] is 76.4%; the viability, T/C under setting [29] was 65.6%; the viability, T/C under setting [30] was 41.3%. The viability, T/C reads like this: under setting [31], 95.3%; under setting [32], 85.2%; under setting [33], 79%; under setting [34], 74.3%; under setting [35], 56.4%; under setting [36], 42.8%. Besides, the viability, T/C was 87.8% under setting [37]; 75.6% under setting [38]; 76.9% under setting [39]; 67.4% under setting [40]; 57.7% under setting [41]; 53.1% under setting [42].
For the compound `C#Cc1c(F)ccc2cc(O)cc(-c3ncc4c(N5CC6CCC(C5)N6)nc(OCC56CCCN5CC(F)C6)nc4c3F)c12` (stereo not given), the viability, T/C was 99.9% [middle of 8 runs] (compound 0.0316 µM); 101% [middle of 8 runs] (compound 0.1 µM); 94.8% [middle of 8 runs] (compound 0.316 µM); 79.1% [middle of 8 runs] (compound 1 µM); 54.6% [middle of 8 runs] (compound 10 µM). Moreover, the IC50 (compound alone, run of 07/15/2024) was 6.73 µM and > 10 µM and 9.19 µM.
On to `CC(C)n1nc(-c2ccc3oc(N)nc3c2)c2c(N)ncnc21`, for which the viability, T/C runs as follows: (compound 0.000316 µM) 103% [middle of 4 runs]; (compound 0.001 µM) 99.1% [middle of 4 runs]; (compound 0.00316 µM) 101% [middle of 4 runs]; (compound 0.0316 µM) 63.5% [middle of 4 runs]. In addition, for the setting “curve of compound”, the IC50 is 0.0539 µM and > 0.1 µM and 0.0758 µM.
Regarding `CCC(CC)c1cc(NC2CCC(N)C2)n2nccc2n1` (stereo not given) + CCn1c(-c2cc(N3CCN(C)CC3)cnc2C(C)OC)c2c3cc(ccc31)-c1csc(n1)CC(NC(=O)C1CC1C)C(=O)N1CCCC(N1)C(=O)OCC(C)(C)C2, the IC50 runs as follows: under setting [1], 4.55 µM; under setting [2], 4.56 µM; under setting [3], 4.58 µM; under setting [4], 4.8 µM; under setting [5], 4.69 µM; under setting [6], below 0.0316 µM. The viability, T/C under setting [7] is 94.5%; the viability, T/C under setting [8] was 116%; the viability, T/C under setting [9] was 99.3%; the viability, T/C under setting [10] was 101%; the viability, T/C under setting [11] was 71.2%; the viability, T/C under setting [12] is 4.02%. For the same compound, the viability, T/C runs as follows: under setting [13], 103%; under setting [14], 108%; under setting [15], 96.6%; under setting [16], 98.4%; under setting [17], 71.4%; under setting [18], 3.89%. For the same compound, the viability, T/C under setting [19] was 102%; the viability, T/C under setting [20] is 141%; the viability, T/C under setting [21] is 97.5%; the viability, T/C under setting [22] was 94.7%; the viability, T/C under setting [23] was 76%; the viability, T/C under setting [24] was 3.54%. Besides, the viability, T/C under setting [25] was 101%; the viability, T/C under setting [26] is 103%; the viability, T/C under setting [27] was 89.8%; the viability, T/C under setting [28] was 99.4%; the viability, T/C under setting [29] was 76.1%; the viability, T/C under setting [30] is 3.95%. The viability, T/C under setting [31] was 90.2%; the viability, T/C under setting [32] was 86.8%; the viability, T/C under setting [33] was 81.2%; the viability, T/C under setting [34] was 85.6%; the viability, T/C under setting [35] was 74.1%; the viability, T/C under setting [36] was 3.61%. The viability, T/C is, setting by setting: under setting [37], 47.8%; under setting [38], 51.8%; under setting [39], 45%; under setting [40], 27.9%; under setting [41], 4.3%; under setting [42], 3.52%.

These data come from PubChem BioAssay AID2060909 (Molecular Pharmacology Branch, DTP, NCI, 2025).
